Results reported in patent US20130071897A1, “METHOD FOR CONTROLLING UNDESIRABLE BYPRODUCTS FORMATION CAUSED BY CONTAMINATING ORGANISMS IN THE PRODUCTION OF ETHANOL FROM SYNGAS” (COSKATA, INC., priority 2011, published 2013).

How the values were obtained:
Format in all cases: cell-based
Conditions in all cases: added 21 h after inoculation
C. autoethanogenum = test: Balch tube batch growth of homoacetogen C. autoethanogenum on fructose, optical density
Procedure: These compounds were first tested to determine their effect on a known homoacetogen. Each compound was tested in a series of batch experiments to determine the growth response of a homoacetogen to the presence of the compound at varying concentrations. The batch experiments were all conducted by anoxically filling a Balch tube with 5 ml of a fermentation medium having the composition given in Tables 2 and 3. To expedite results, these batch experiments used fructose as the growth nutrient source for bacteria. Thus, the media included a 5 g/L of fructose.
Each tube was inoculated with 0.5 ml of the same strain of C. autoethanogenum bacteria seed culture inoculum. The tubes were maintained at a temperature of 37° C. Twenty one hours after the inoculation of the tube with the bacteria, the different crotonate derivatives from Table 1 were added to different tubes in the amounts indicated in Table 4 This was at a time of early to mid-log phase growth for the bacteria. Each fermentation of the bacteria in the media at the different concentration of crotonate derivatives were allowed to progress and were monitored to determine the bacteria growth at selected intervals of time varying from approximately 20 hours to 190 hours. Growth at the intervals was measured by reading the optical density (OD) of the fermentation liquid. Optical density was measured using a Spectronic Spec 20 (Thermo Spectronic) at a wavelength of 600 nm. The OD of the Balch tube culture was measured directly in the tube using absorbance mode on the Spec 20 machine. The machine was set to zero absorbance by first measuring and adjusting the setting to zero absorbance using media only as a blank. This process was repeated at each indicated time point throughout the experiment. The ability of a tube fermentation at a particular concentration of crotonate derivative to reach a predetermined optical density was recorded in Table 4. Table 4 indicates the presence of bacterial growth to an OD of approximately 2 or above with a “+”, and to an optical density in a range of 0.5 to 1.5 as a “+/−”, and indicates the failure of bacterial growth to reach an optical density of approximately 0.5 as a “−”.

[1] = tested on: Clostridium tyrobutyricum; test: Balch tube batch growth of strict butyrogen Clostridium tyrobutyricum on fructose, optical density
Procedure: Similar experiments were conducted to make a preliminary determination as to which of the crotonate and crotonate-like compounds would act as butyrogen retardants. For this purpose the selected compounds were tested again in a series of batch experiments to determine the growth response of butyrogens to the presence of the compound at varying concentrations. The batch experiments were all conducted by anoxically filling a 20 ml Balch tube with 5 ml of a fermentation medium having the composition given in Tables 2 and 3. The media included 0.5 v/v final concentration of a fructose substrate. For each of the crotonate concentrations tested, duplicate test tubes were prepared.
Each tube was inoculated with 0.5 ml seed culture inoculum of the strict butyrogen Clostridium tyrobutyricum. The tubes were maintained at a temperature of 37° C. Twenty one hours after the inoculation of the tube with the bacteria, the different compounds from Table 1 were added to different tubes in the amounts indicated in Table 6. This was at a time of early to mid-log phase growth for the bacteria. Each fermentation of the bacteria in the media at the different concentration of crotonate derivatives were allowed to progress and were monitored to determine the bacteria growth at selected intervals of time varying from approximately 20 hours to 54 hours. Growth at the intervals was measured by reading the optical density (OD) of the fermentation liquid. Optical density was measured as described in Example 1. The ability of a tube fermentation at a particular concentration of crotonate derivative to reach a predetermined optical density was recorded in Table 6. Table 6 indicates the presence of bacterial growth to an OD of approximately 1.8 or above with a “+”, and to an optical density in a range of 0.7 to 1.5 as a “+/−”, and indicates the failure of bacterial growth to reach an optical density of approximately 0.7 as a “−”.

C. coskatii = test: Balch tube batch growth of homoacetogen C. coskatii on fructose, optical density
Procedure: Compounds A and D were again tested to determine their effect on another known homoacetogen. Each compound was tested in a series of batch experiments to determine the growth response of the homoacetogen to the presence of the compound at varying concentrations. These batch experiments were again all conducted by anoxically filling a Balch tube with 5 ml of a fermentation medium having the composition given in Tables 2 and 3. To expedite results, these batch experiments used fructose as the growth nutrient source for bacteria. Thus, the media included 5 g/L of fructose.
Each tube was inoculated with 0.5 ml of the same strain of C. coskatii bacteria seed culture inoculum. The tubes were maintained at a temperature of 37° C. Twenty one hours after the inoculation of the tube with the bacteria, the different crotonate derivatives from Table 1 were added to different tubes in the amounts indicated in Table 5. This was at a time of early to mid-log phase growth for the bacteria. Each fermentation of the bacteria in the media at the different concentration of crotonate derivatives were allowed to progress and were monitored to determine the bacteria growth at selected intervals of time varying from approximately 20 hours to 50 hours. Growth at the intervals was determined by measurement of the OD in the manner described in Example 1. The ability of a tube fermentation at a particular concentration of crotonate derivative to reach a predetermined optical density was recorded in Table 5. Table 5 indicates the presence of bacterial growth to an OD of approximately 1.6 or above with a “+”. All the samples of C. Coskatii reached a relatively high OD after a time of only 50 hours.

SMILES | Optical density valuation of C. autoethanogenum (C. autoethanogenum; 1 ppm(m)) | Optical density valuation of C. autoethanogenum (C. autoethanogenum; 5 ppm(m)) | Optical density valuation of C. autoethanogenum (C. autoethanogenum; 10 ppm(m)) | Optical density valuation of C. autoethanogenum (C. autoethanogenum; 50 ppm(m)) | Optical density valuation of C. autoethanogenum (C. autoethanogenum; 100 ppm(m)) | Optical density valuation of C. autoethanogenum (C. autoethanogenum; 500 ppm(m)) | Optical density valuation of C. autoethanogenum (C. autoethanogenum; 1000 ppm(m)) | Optical density valuation of C. autoethanogenum (C. autoethanogenum; 5000 ppm(m)) | Optical density valuation of C. autoethanogenum (C. autoethanogenum; 10000 ppm(m)) | Optical density valuation of C. tyrobutyricum ([1]; 100 ppm(m)) | Optical density valuation of C. tyrobutyricum ([1]; 500 ppm(m)) | Optical density valuation of C. tyrobutyricum ([1]; 1000 ppm(m)) | Optical density valuation of C. coskatii (C. coskatii; 100 ppm(m)) | Optical density valuation of C. coskatii (C. coskatii; 500 ppm(m)) | Optical density valuation of C. coskatii (C. coskatii; 1000 ppm(m))
CCOC(=O)/C=C(\N)C(F)(F)F [B, ethyl-3-amino-4,4,4-trifluorocrotonate] | + (bacterial growth to an OD of approximately 2 or above) | + (bacterial growth to an OD of approximately 2 or above) | + (bacterial growth to an OD of approximately 2 or above) | + (bacterial growth to an OD of approximately 2 or above) | + (bacterial growth to an OD of approximately 2 or above) | + (bacterial growth to an OD of approximately 2 or above) | + (bacterial growth to an OD of approximately 2 or above) | +/− (to an optical density in a range of 0.5 to 1.5) | − (failure of bacterial growth to reach an optical density of approximately 0.5) | + (bacterial growth to an OD of approximately 1.8 or above) | + (bacterial growth to an OD of approximately 1.8 or above) | + (bacterial growth to an OD of approximately 1.8 or above) |  |  | 
CCOC(=O)C=C(C(F)(F)F)C(F)(F)F [Compound A, ethyl 4,4,4-trifluoro-3-(trifluoromethyl)crotonate] | + (bacterial growth to an OD of approximately 2 or above) | + (bacterial growth to an OD of approximately 2 or above) | + (bacterial growth to an OD of approximately 2 or above) | + (bacterial growth to an OD of approximately 2 or above) | + (bacterial growth to an OD of approximately 2 or above) | + (bacterial growth to an OD of approximately 2 or above) | + (bacterial growth to an OD of approximately 2 or above) | − (failure of bacterial growth to reach an optical density of approximately 0.5) | − (failure of bacterial growth to reach an optical density of approximately 0.5) | + (bacterial growth to an OD of approximately 1.8 or above) | +/− (to an optical density in a range of 0.7 to 1.5) | − (failure of bacterial growth to reach an optical density of approximately 0.7) | + (bacterial growth to an OD of approximately 1.6 or above) | + (bacterial growth to an OD of approximately 1.6 or above) | + (bacterial growth to an OD of approximately 1.6 or above)
O=C(O)C=C(C(F)(F)F)C(F)(F)F [D, 4,4,4-trifluoro-3-(trifluoromethyl)crotonic acid] |  |  | + (bacterial growth to an OD of approximately 2 or above) |  | + (bacterial growth to an OD of approximately 2 or above) | + (bacterial growth to an OD of approximately 2 or above) | +/− (to an optical density in a range of 0.5 to 1.5) | − (failure of bacterial growth to reach an optical density of approximately 0.5) | − (failure of bacterial growth to reach an optical density of approximately 0.5) | + (bacterial growth to an OD of approximately 1.8 or above) | + (bacterial growth to an OD of approximately 1.8 or above) | + (bacterial growth to an OD of approximately 1.8 or above) | + (bacterial growth to an OD of approximately 1.6 or above) | + (bacterial growth to an OD of approximately 1.6 or above) | + (bacterial growth to an OD of approximately 1.6 or above)
